{
  "source": "ChEMBL document CHEMBL1649250",
  "about": "“Susceptibility of urinary tract bacteria to fosfomycin” (2009)",
  "key": {"[1]": {"test_system": "Stenotrophomonas maltophilia", "assay": "Antimicrobial activity against Stenotrophomonas maltophilia obtained from urine sample of patient assessed as percent susceptible isolates by disk diffusion method", "assay_type": "functional"}, "Enterobacter sp. [2]": {"test_system": "Enterobacter sp.", "assay": "Antimicrobial activity against cefotaxime-, ceftriaxone-, cefepime-, ceftazidime-, and aztreonam-nonsusceptible Enterobacter sp. assessed as percent susceptible isolates by disk diffusion method", "assay_type": "functional"}, "Enterococcus faecium": {"test_system": "Enterococcus faecium", "assay": "Antimicrobial activity against Enterococcus faecium obtained from urine sample of patient assessed as percent susceptible isolates by disk diffusion method", "assay_type": "functional"}, "Acinetobacter baumannii": {"test_system": "Acinetobacter baumannii", "assay": "Antimicrobial activity against Acinetobacter baumannii obtained from urine sample of patient assessed as percent susceptible isolates by disk diffusion method", "assay_type": "functional"}, "Serratia marcescens": {"test_system": "Serratia marcescens", "assay": "Antimicrobial activity against Serratia marcescens obtained from urine sample of patient assessed as percent susceptible isolates by disk diffusion method", "assay_type": "functional"}, "Escherichia coli [3]": {"test_system": "Escherichia coli", "assay": "Antimicrobial activity against cefotaxime-, ceftriaxone-, cefepime-, ceftazidime-, and aztreonam-nonsusceptible Escherichia coli assessed as percent susceptible isolates by disk diffusion method", "assay_type": "functional"}, "Enterococcus faecalis": {"test_system": "Enterococcus faecalis", "assay": "Antimicrobial activity against Enterococcus faecalis obtained from urine sample of patient assessed as percent susceptible isolates by disk diffusion method", "assay_type": "functional"}, "Escherichia coli [4]": {"test_system": "Escherichia coli", "assay": "Antimicrobial activity against […] producing Escherichia coli assessed as percent susceptible isolates by disk diffusion method", "assay_type": "functional"}, "Klebsiella pneumoniae [5]": {"test_system": "Klebsiella pneumoniae", "assay": "Antimicrobial activity against carbapenemase producing Klebsiella pneumoniae assessed as percent susceptible isolates by disk diffusion method", "assay_type": "functional"}, "Salmonella sp.": {"test_system": "Salmonella sp.", "assay": "Antimicrobial activity against Salmonella sp. obtained from urine sample of patient assessed as percent susceptible isolates by disk diffusion method", "assay_type": "functional"}, "[6]": {"test_system": "Staphylococcus epidermidis", "assay": "Antimicrobial activity against Staphylococcus epidermidis obtained from urine sample of patient assessed as percent susceptible isolates by disk diffusion method", "assay_type": "functional, organism-based"}, "Klebsiella pneumoniae [7]": {"test_system": "Klebsiella pneumoniae", "assay": "Antimicrobial activity against cefotaxime-, ceftriaxone-, cefepime-, ceftazidime-, and aztreonam-nonsusceptible Klebsiella pneumoniae assessed as percent susceptible isolates by disk diffusion method", "assay_type": "functional"}, "Klebsiella pneumoniae [8]": {"test_system": "Klebsiella pneumoniae", "assay": "Antimicrobial activity against Klebsiella pneumoniae obtained from urine sample of patient assessed as percent susceptible isolates by disk diffusion method", "assay_type": "functional"}, "[9]": {"test_system": "Staphylococcus saprophyticus", "assay": "Antimicrobial activity against Staphylococcus saprophyticus obtained from urine sample of patient assessed as percent susceptible isolates by disk diffusion method", "assay_type": "functional"}, "Klebsiella pneumoniae [10]": {"test_system": "Klebsiella pneumoniae", "assay": "Antimicrobial activity against […] producing Klebsiella pneumoniae assessed as percent susceptible isolates by disk diffusion method", "assay_type": "functional"}, "Klebsiella pneumoniae [11]": {"test_system": "Klebsiella pneumoniae", "assay": "Antimicrobial activity against colistin-nonsusceptible Klebsiella pneumoniae assessed as percent susceptible isolates by disk diffusion method", "assay_type": "functional"}, "Escherichia coli [12]": {"test_system": "Escherichia coli", "assay": "Antimicrobial activity against Escherichia coli obtained from urine sample of patient assessed as percent susceptible isolates by disk diffusion method", "assay_type": "functional"}, "Klebsiella oxytoca": {"test_system": "Klebsiella oxytoca", "assay": "Antimicrobial activity against […] producing Klebsiella oxytoca assessed as percent susceptible isolates by disk diffusion method", "assay_type": "functional"}, "Enterobacter sp. [13]": {"test_system": "Enterobacter sp.", "assay": "Antimicrobial activity against Enterobacter sp. obtained from urine sample of patient assessed as percent susceptible isolates by disk diffusion method", "assay_type": "functional"}, "Staphylococcus aureus": {"test_system": "Staphylococcus aureus", "assay": "Antimicrobial activity against Staphylococcus aureus obtained from urine sample of patient assessed as percent susceptible isolates by disk diffusion method", "assay_type": "functional"}, "Pseudomonas aeruginosa [14]": {"test_system": "Pseudomonas aeruginosa", "assay": "Antimicrobial activity against cefotaxime-, ceftriaxone-, cefepime-, ceftazidime-, and aztreonam-nonsusceptible Pseudomonas aeruginosa assessed as percent susceptible isolates by disk diffusion method", "assay_type": "functional"}, "Streptococcus agalactiae": {"test_system": "Streptococcus agalactiae", "assay": "Antimicrobial activity against Streptococcus agalactiae obtained from urine sample of patient assessed as percent susceptible isolates by disk diffusion method", "assay_type": "functional"}, "Proteus mirabilis": {"test_system": "Proteus mirabilis", "assay": "Antimicrobial activity against Proteus mirabilis obtained from urine sample of patient assessed as percent susceptible isolates by disk diffusion method", "assay_type": "functional"}, "Pseudomonas aeruginosa [15]": {"test_system": "Pseudomonas aeruginosa", "assay": "Antimicrobial activity against Pseudomonas aeruginosa obtained from urine sample of patient assessed as percent susceptible isolates by disk diffusion method", "assay_type": "functional"}, "Klebsiella pneumoniae [16]": {"test_system": "Klebsiella pneumoniae", "assay": "Antimicrobial activity against carbapenemase-nonsusceptible Klebsiella pneumoniae assessed as percent susceptible isolates by disk diffusion method", "assay_type": "functional"}, "Pseudomonas aeruginosa [17]": {"test_system": "Pseudomonas aeruginosa", "assay": "Antimicrobial activity against carbapenemase-nonsusceptible Pseudomonas aeruginosa assessed as percent susceptible isolates by disk diffusion method", "assay_type": "functional"}},
  "note": "Calls of active or inactive are those of the source. The calls are words filed in the database; no cut-off is given here.",
  "data": [
    {"smiles": "C[C@@H]1O[C@@H]1P(=O)(O)O", "note": "[FOSFOMYCIN]", "values": [
      {"measurement": "Activity", "setting": "[1]", "result": 66.6, "unit": "%"},
      {"measurement": "Activity", "setting": "Enterobacter sp. [2]", "result": 100, "unit": "%"},
      {"measurement": "Activity", "setting": "Enterococcus faecium", "result": 0, "unit": "%"},
      {"measurement": "Activity", "setting": "Acinetobacter baumannii", "result": 9, "unit": "%"},
      {"measurement": "Activity", "setting": "Serratia marcescens", "result": 66.6, "unit": "%"},
      {"measurement": "Activity", "setting": "Escherichia coli [3]", "result": 100, "unit": "%"},
      {"measurement": "Activity", "setting": "Enterococcus faecalis", "result": 91.8, "unit": "%"},
      {"measurement": "Activity", "setting": "Escherichia coli [4]", "result": 100, "unit": "%"},
      {"measurement": "Activity", "setting": "Klebsiella pneumoniae [5]", "result": 60, "unit": "%"},
      {"measurement": "Activity", "setting": "Salmonella sp.", "result": 66.6, "unit": "%"},
      {"measurement": "Activity", "setting": "[6]", "result": "Active"},
      {"measurement": "Activity", "setting": "Klebsiella pneumoniae [7]", "result": 75, "unit": "%"},
      {"measurement": "Activity", "setting": "Klebsiella pneumoniae [8]", "result": 82.3, "unit": "%"},
      {"measurement": "Activity", "setting": "[9]", "result": 100, "unit": "%"},
      {"measurement": "Activity", "setting": "Klebsiella pneumoniae [10]", "result": 100, "unit": "%"},
      {"measurement": "Activity", "setting": "Klebsiella pneumoniae [11]", "result": 58.3, "unit": "%"},
      {"measurement": "Activity", "setting": "Escherichia coli [12]", "result": 100, "unit": "%"},
      {"measurement": "Activity", "setting": "Klebsiella oxytoca", "result": 0, "unit": "%"},
      {"measurement": "Activity", "setting": "Enterobacter sp. [13]", "result": 75, "unit": "%"},
      {"measurement": "Activity", "setting": "Staphylococcus aureus", "result": 100, "unit": "%"},
      {"measurement": "Activity", "setting": "Pseudomonas aeruginosa [14]", "result": 17, "unit": "%"},
      {"measurement": "Activity", "setting": "Streptococcus agalactiae", "result": 50, "unit": "%"},
      {"measurement": "Activity", "setting": "Proteus mirabilis", "result": 96.7, "unit": "%"},
      {"measurement": "Activity", "setting": "Pseudomonas aeruginosa [15]", "result": 85, "unit": "%"},
      {"measurement": "Activity", "setting": "Klebsiella pneumoniae [16]", "result": 60, "unit": "%"},
      {"measurement": "Activity", "setting": "Pseudomonas aeruginosa [17]", "result": 88.8, "unit": "%"}
    ]}
  ]
}
